25 molecules from patent US20170107212A1, “NOVEL COMPOUNDS” (Bayer Pharma Aktiengesellschaft, priority 2014, published 2017) can be followed below.

The IC50 is the midpoint of a concentration-inhibition curve. Low readings indicate higher potency, high ones lower potency.

The test system of experiment [1] is constitutive active colorectal cancer cell (CRC) Wnt pathway, HCT116 TOPFlash. As to the kind of experiment: Cellular reporter assay, HCT116 Super TopFlash (constitutive active Wnt pathway), luciferase expression. It is filed as cell-based. The settings on record: Homo sapiens, HCT116 Super TopFlash reporter cells, 36 hours incubation, dilution series 50 μM to 15 nM. The method in brief: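 HCT116 cells stably carrying Super TopFlash (β-catenin ΔS45, constitutive Wnt) run in parallel with FOP control line; compounds 50 μM to 15 nM (3.16-fold) in CAFTY buffer pH 7.4 with 2 mM Ca2+, 0.01% BSA, 36 h at 37 °C. Luciferase luminescence read as Wnt activity.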
(A reporter such as luciferase makes a cellular process visible.)

The test system of a further experiment is HCT116 FOPFlash. Briefly: Control reporter assay, HCT116 FOP control vector (non-functional TCF elements), luciferase expression. The settings on record: Homo sapiens, HCT116 FOP control reporter cells, 36 hours incubation, dilution series 50 μM to 15 nM. Format: cell-based. The method in brief: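 Stable HCT116 cells carrying FOP vector (randomized non-functional TCF sites) plus pcDNA3, run in parallel with TOP line; compounds 50 μM to 15 nM (3.16-fold steps) added in CAFTY buffer pH 7.4 with 2 mM Ca2+, 0.01% BSA. Incubated 36 h at 37 °C, 5% CO2; luciferase luminescence read.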

Structures can show the parent of a compound that is named as a salt. Bounds are passed on as bounds.

`Cc1nc(-c2nnc(NC(=O)c3ccc(OC(F)(F)F)c(NC(=O)CN4CCN(C)CC4)c3)s2)cs1` [Example 44, 3-{[(4-methylpiperazin-1-yl)acetyl]amino}-N-[5-(2-methyl-1,3-thiazol-4-yl)-1,3,4-thiadiazol-2-yl]-4-(trifluoromethoxy)benzamide]: the IC50 in experiment [1] (HCT-116, 36 h) is 0.423 µM; in the experiment on HCT116 FOPFlash (HCT-116, 36 h), ≥ 50 µM.

Consider `CN1CCN(CC(=O)Nc2cc(C(=O)Nc3nnc(-c4nccs4)s3)ccc2OC(F)(F)F)CC1` [Example 45, 1-methyl-4-(2-oxo-2-{[5-{[5-(1,3-thiazol-2-yl)-1,3,4-thiadiazol-2-yl]carbamoyl}-2-(trifluoromethoxy)phenyl]amino}ethyl)piperazin-1-ium hexafluorophosphate], for which the concentration for half-maximal inhibition (IC50) in experiment [1] (HCT-116) was found to be 1.48 µM; in the experiment with HCT116 FOPFlash (HCT-116) it was 45 µM.

`CN1CCN(CC(=O)Nc2cc(C(=O)Nc3ccc(-c4cncnc4)cn3)ccc2OC(F)(F)F)CC1` [Example 46, 3-{[(4-methylpiperazin-1-yl)acetyl]amino}-N-[5-(pyrimidin-5-yl)pyridin-2-yl]-4-(trifluoromethoxy)benzamide]: the IC50 in experiment [1] (HCT-116, 36 h) was 0.0183 µM; in the experiment on HCT116 FOPFlash (HCT-116, 36 h), ≥ 50 µM.

In the case of `O=C(CN1CCOCC1)Nc1cc(C(=O)Nc2nnc(-c3cncc(Cl)c3)s2)ccc1OC(F)(F)F` [Example 47, N-[5-(5-chloropyridin-3-yl)-1,3,4-thiadiazol-2-yl]-3-[(morpholin-4-ylacetyl)amino]-4-(trifluoromethoxy)benzamide], the IC50 in experiment [1] (HCT-116, 36 h) was 0.585 µM; in the experiment with HCT116 FOPFlash (HCT-116, 36 h), ≥ 50 µM.

With `Cc1cncc(-c2nnc(NC(=O)c3ccc(OC(F)(F)F)c(NC(=O)CN4CCOCC4)c3)s2)n1` [Example 48, N-[5-(6-methylpyrazin-2-yl)-1,3,4-thiadiazol-2-yl]-3-[(morpholin-4-ylacetyl)amino]-4-(trifluoromethoxy)benzamide], the IC50 in experiment [1] (HCT-116, 36 h) is 0.663 µM; with HCT116 FOPFlash (HCT-116, 36 h), ≥ 50 µM.

`Nc1ccc(-c2nnc(NC(=O)c3ccc(OC(F)(F)F)c(NC(=O)C4(N5CCOCC5)CC4)c3)s2)cn1` [Example 49, N-[5-(6-aminopyridin-3-yl)-1,3,4-thiadiazol-2-yl]-3-({[1-(morpholin-4-yl)cyclopropyl]carbonyl}amino)-4-(trifluoromethoxy)benzamide]: the IC50 was 0.31 µM in experiment [1] (HCT-116, 36 h) and ≥ 50 µM in the experiment with HCT116 FOPFlash (HCT-116, 36 h).

Consider `CN1CCN(CC(=O)Nc2cc(C(=O)Nc3nnc(-c4cccnc4)s3)ccc2OCC(F)(F)F)CC1` [Example 50, 3-{[(4-methylpiperazin-1-yl)acetyl]amino}-N-[5-(pyridin-3-yl)-1,3,4-thiadiazol-2-yl]-4-(2,2,2-trifluoroethoxy)benzamide hydrochloride (1:1)], for which the IC50 in experiment [1] (HCT-116, 36 h) is 0.293 µM; in the experiment on HCT116 FOPFlash (HCT-116, 36 h) it was 20.5 µM.

Consider `CN1CCN(CC(=O)Nc2cc(C(=O)Nc3cnc(-c4cccnc4F)cn3)ccc2OC(F)(F)F)CC1` [Example 51], for which the half-maximal inhibitory concentration (IC50) was 0.079 µM in experiment [1] (HCT-116, 36 h) and ≥ 50 µM in the experiment on HCT116 FOPFlash (HCT-116, 36 h).

Take `CN1CCN(CC(=O)Nc2cc(C(=O)Nc3cnc(-c4ccncc4)cn3)ccc2OC(F)(F)F)CC1` [Example 52, 3-{[(4-methylpiperazin-1-yl)acetyl]amino}-N-[5-(pyridin-4-yl)pyrazin-2-yl]-4-(trifluoromethoxy)benzamide]: the IC50 in experiment [1] (HCT-116, 36 h) was 0.064 µM; in the experiment with HCT116 FOPFlash (HCT-116, 36 h) it was ≥ 50 µM.

In the case of `CN1CCN(CC(=O)Nc2cc(C(=O)Nc3cnc(-c4ccnc(N)c4)cn3)ccc2OC(F)(F)F)CC1` [Example 53, N-[5-(2-aminopyridin-4-yl)pyrazin-2-yl]-3-{[(4-methylpiperazin-1-yl)acetyl]amino}-4-(trifluoromethoxy)benzamide], the half-inhibitory concentration (IC50) was 2 µM in experiment [1] (HCT-116, 36 h) and ≥ 50 µM in the experiment with HCT116 FOPFlash (HCT-116, 36 h).

With `CN1CCN(CC(=O)Nc2cc(C(=O)Nc3cnc(-c4ccc(N)nc4)cn3)ccc2OC(F)(F)F)CC1` [Example 54, N-[5-(6-aminopyridin-3-yl)pyrazin-2-yl]-3-{[(4-methylpiperazin-1-yl)acetyl]amino}-4-(trifluoromethoxy)benzamide], the IC50 in experiment [1] (HCT-116, 36 h) is 0.0355 µM; in the experiment with HCT116 FOPFlash (HCT-116, 36 h), ≥ 50 µM.

In the case of `Nc1ccc(-c2nnc(NC(=O)c3ccc(OC(F)(F)F)c(NC(=O)CN4CCOCC4)c3)s2)cn1` [Example 55, N-[5-(6-aminopyridin-3-yl)-1,3,4-thiadiazol-2-yl]-3-[(morpholin-4-ylacetyl)amino]-4-(trifluoromethoxy)benzamide], the IC50 is 0.24 µM in experiment [1] (HCT-116, 36 h) and ≥ 50 µM in the experiment with HCT116 FOPFlash (HCT-116, 36 h).

With `Cc1cncc(-c2nnc(NC(=O)c3ccc(OC(F)(F)F)c(NC(=O)CN4CCOCC4)c3)s2)c1` [Example 56, N-[5-(5-methylpyridin-3-yl)-1,3,4-thiadiazol-2-yl]-3-[(morpholin-4-ylacetyl)amino]-4-(trifluoromethoxy)benzamide], the IC50 in experiment [1] (HCT-116, 36 h) is 0.47 µM; in the experiment on HCT116 FOPFlash (HCT-116, 36 h), ≥ 50 µM.

Turning to `CN1CCN(CC(=O)Nc2cc(C(=O)Nc3nnc(-c4cncc(C(F)(F)F)c4)s3)ccc2OC(F)(F)F)CC1` [Example 57, 3-{[(4-methylpiperazin-1-yl)acetyl]amino}-4-(trifluoromethoxy)-N-{5-[5-(trifluoromethyl)pyridin-3-yl]-1,3,4-thiadiazol-2-yl}benzamide], the IC50 in experiment [1] (HCT-116, 36 h) is 0.24 µM; in the experiment on HCT116 FOPFlash (HCT-116, 36 h) it was ≥ 50 µM.

Take `O=C(CN1CCOCC1)Nc1cc(C(=O)Nc2nnc(-c3cncc(C(F)(F)F)c3)s2)ccc1OC(F)(F)F` [Example 58, 3-[(morpholin-4-ylacetyl)amino]-4-(trifluoromethoxy)-N-{5-[5-(trifluoromethyl)pyridin-3-yl]-1,3,4-thiadiazol-2-yl}benzamide]: the IC50 in experiment [1] (HCT-116, 36 h) stood at 7.39 µM; in the experiment on HCT116 FOPFlash (HCT-116, 36 h), 27.3 µM.

Regarding `CN1CCN(CC(=O)Nc2cc(C(=O)Nc3cnc(-c4cnc(N)cn4)cn3)ccc2OC(F)(F)F)CC1` [Example 59, N-(5′-amino-2,2′-bipyrazin-5-yl)-3-{[(4-methylpiperazin-1-yl)acetyl]amino}-4-(trifluoromethoxy)benzamide], the IC50 was 4.1 µM in experiment [1] (HCT-116, 36 h) and ≥ 50 µM in the experiment on HCT116 FOPFlash (HCT-116, 36 h).

For the molecule `CN1CCN(CC(=O)Nc2cc(C(=O)Nc3nnc(-c4cnccn4)s3)ccc2OC2CC2)CC1` [Example 60, 4-(cyclopropyloxy)-3-{[(4-methylpiperazin-1-yl)acetyl]amino}-N-[5-(pyrazin-2-yl)-1,3,4-thiadiazol-2-yl]benzamide], the IC50 was 4.4 µM in experiment [1] (HCT-116, 36 h) and ≥ 50 µM in the experiment on HCT116 FOPFlash (HCT-116, 36 h).

Turning to `Cc1ccncc1-c1nnc(NC(=O)c2ccc(OCC(F)(F)F)c(NC(=O)CN3CCN(C)CC3)c2)s1` [Example 61, 3-{[(4-methylpiperazin-1-yl)acetyl]amino}-N-[5-(4-methylpyridin-3-yl)-1,3,4-thiadiazol-2-yl]-4-(2,2,2-trifluoroethoxy)benzamide], the concentration for half-maximal inhibition (IC50) is 0.34 µM in experiment [1] (HCT-116, 36 h) and ≥ 50 µM in the experiment on HCT116 FOPFlash (HCT-116, 36 h).

For `Cc1ccnc(-c2nnc(NC(=O)c3ccc(OC(F)(F)F)c(NC(=O)CN4CCN(C)CC4)c3)s2)c1` [Example 62, 3-{[(4-methylpiperazin-1-yl)acetyl]amino}-N-[5-(4-methylpyridin-2-yl)-1,3,4-thiadiazol-2-yl]-4-(trifluoromethoxy)benzamide], the IC50 was 1.01 µM in experiment [1] (HCT-116, 36 h) and 8.55 µM in the experiment on HCT116 FOPFlash (HCT-116, 36 h).

As for `Cc1csc(-c2nnc(NC(=O)c3ccc(OC(F)(F)F)c(NC(=O)CN4CCN(C)CC4)c3)s2)n1` [Example 63, 3-{[(4-methylpiperazin-1-yl)acetyl]amino}-N-[5-(4-methyl-1,3-thiazol-2-yl)-1,3,4-thiadiazol-2-yl]-4-(trifluoromethoxy)benzamide], the IC50 came to 1.08 µM in experiment [1] (HCT-116, 36 h) and 43.5 µM with HCT116 FOPFlash (HCT-116, 36 h).

For the molecule `CN1CCN(CC(=O)Nc2cc(C(=O)Nc3nnc(-c4cscn4)s3)ccc2OC(F)(F)F)CC1` [Example 64, 3-{[(4-methylpiperazin-1-yl)acetyl]amino}-N-[5-(1,3-thiazol-4-yl)-1,3,4-thiadiazol-2-yl]-4-(trifluoromethoxy)benzamide], the IC50 came to 1.11 µM in experiment [1] (HCT-116, 36 h) and 46 µM with HCT116 FOPFlash (HCT-116, 36 h).

For the molecule `CN1CCN(CC(=O)Nc2cc(C(=O)Nc3nnc(-c4cnc(N)s4)s3)ccc2OC(F)(F)F)CC1` [Example 66, N-[5-(2-amino-1,3-thiazol-5-yl)-1,3,4-thiadiazol-2-yl]-3-{[(4-methylpiperazin-1-yl)acetyl]amino}-4-(trifluoromethoxy)benzamide], the IC50 was 1.47 µM in experiment [1] (HCT-116, 36 h) and ≥ 50 µM with HCT116 FOPFlash (HCT-116, 36 h).

For `O=C(CN1CCOCC1)Nc1cc(C(=O)Nc2nnc(-c3cscn3)s2)ccc1OC(F)(F)F` [Example 67, 3-[(morpholin-4-ylacetyl)amino]-N-[5-(1,3-thiazol-4-yl)-1,3,4-thiadiazol-2-yl]-4-(trifluoromethoxy)benzamide], the IC50 in experiment [1] (HCT-116, 36 h) was 1.65 µM; in the experiment on HCT116 FOPFlash (HCT-116, 36 h), ≥ 50 µM.

For the molecule `CN1CCN(CC(=O)Nc2cc(C(=O)Nc3nnc(-c4cncs4)s3)ccc2OC(F)(F)F)CC1` [Example 68, 3-{[(4-methylpiperazin-1-yl)acetyl]amino}-N-[5-(1,3-thiazol-5-yl)-1,3,4-thiadiazol-2-yl]-4-(trifluoromethoxy)benzamide], the IC50 in experiment [1] (HCT-116, 36 h) was 1.86 µM; in the experiment with HCT116 FOPFlash (HCT-116, 36 h), ≥ 50 µM.

Consider `O=C(CN1CCOCC1)Nc1cc(C(=O)Nc2nnc(-c3cncnc3)s2)ccc1OC(F)(F)F` [Example 69, 3-[(morpholin-4-ylacetyl)amino]-N-[5-(pyrimidin-5-yl)-1,3,4-thiadiazol-2-yl]-4-(trifluoromethoxy)benzamide], for which the IC50 in experiment [1] (HCT-116, 36 h) is 2.45 µM; in the experiment with HCT116 FOPFlash (HCT-116, 36 h), ≥ 50 µM.
